Patent US7524853B2 (Solvay Pharmaceuticals B.V., priority 2003, dated 2009)

What was measured:
Assay type in all cases: cell-based
[1] = biological target: T1, 17β-hydroxysteroid dehydrogenase type 2 (17β-HSD type 2) (Homo sapiens, UniProt P37059); test: Inhibition of 17β-HSD type 2 in MCF-7 cells stably expressing the isoenzyme (tritium labeled estradiol conversion, HPLC); conditions: MCF-7 cells expressing 17β-HSD type 2, 2 nM tritium labeled estradiol; for inhibition at 1 µM / inhibition at 10 µM: MCF7; for inhibition at 1 µM: read-out: % Inhibition HSD2 1 μM; for inhibition at 10 µM: read-out: % Inhibition HSD2 10 μM
T1 construct: expressed in transfected cells; host or cells: MCF-7
T1 sequence (P37059 1-387): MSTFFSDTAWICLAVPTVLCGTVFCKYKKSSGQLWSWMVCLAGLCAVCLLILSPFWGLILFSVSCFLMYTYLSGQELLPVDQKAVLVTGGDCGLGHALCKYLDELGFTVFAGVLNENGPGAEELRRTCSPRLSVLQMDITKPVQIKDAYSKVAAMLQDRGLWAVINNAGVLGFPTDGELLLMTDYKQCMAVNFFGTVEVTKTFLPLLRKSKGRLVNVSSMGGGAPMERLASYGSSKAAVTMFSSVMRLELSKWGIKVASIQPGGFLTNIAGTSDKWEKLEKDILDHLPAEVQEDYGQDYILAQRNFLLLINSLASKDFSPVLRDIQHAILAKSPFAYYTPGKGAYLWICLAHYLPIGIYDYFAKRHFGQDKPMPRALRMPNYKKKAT
Excerpt: (§1) Biological Testing Materials and Methods 1. Inhibition of the 17β-hydroxysteroid dehydrocienase type 1, type 2 and type 3 enzyme
(§2) The compounds were screened in respect of 17β-HSD enzyme activity in vitro on established MCF-7 cell lines, each stably expressing one of the respective 17β-HSD isoenzymes. The interconversion of substrate by each isoenzyme and the 17β-HSD inhibiting activity of chemical compounds in these cell lines were detected by HPLC system.
(§3) Varying amounts of the test compounds were incubated in the growth medium of the 17β-HSD expressing cells together tritium labeled substrate (2 nM estrone for 17β-HSD type 1; 2 nM estradiol for 17β-HSD type 2; and 2 nM androstenedione for 17β-HSD type 3). The medium samples were removed after exact incubation time and the reaction is stopped by trichloroacetic acid (TCA). The samples were analyzed by HPLC-coupled flow scintillation analysis.
(§4) For each enzyme type, the HSD-inhibiting activity of an individual test compound was calculated by comparing the conversion of a control sample without any test compound (referred to as “Negative Control”) to the (reduced) conversion of the test sample containing the particular compound to be tested (referred to as “Test Sample”).
(§5) Two concentrations of each compound were used. The number of the compound refers to the numbers indicated in the Experimental Section.

[2] = biological target: T2, 17β-hydroxysteroid dehydrogenase type 3 (17β-HSD type 3) (Homo sapiens, UniProt P37058); test: Inhibition of 17β-HSD type 3 in MCF-7 cells stably expressing the isoenzyme (tritium labeled androstenedione conversion, HPLC); conditions: MCF-7 cells expressing 17β-HSD type 3, 2 nM tritium labeled androstenedione; for inhibition at 1 µM / inhibition at 10 µM: MCF7; for inhibition at 1 µM: read-out: % Inhibition HSD3 1 μM; for inhibition at 10 µM: read-out: % Inhibition HSD3 10 μM
T2 construct: expressed in transfected cells; host or cells: MCF-7
T2 sequence (P37058 1-310): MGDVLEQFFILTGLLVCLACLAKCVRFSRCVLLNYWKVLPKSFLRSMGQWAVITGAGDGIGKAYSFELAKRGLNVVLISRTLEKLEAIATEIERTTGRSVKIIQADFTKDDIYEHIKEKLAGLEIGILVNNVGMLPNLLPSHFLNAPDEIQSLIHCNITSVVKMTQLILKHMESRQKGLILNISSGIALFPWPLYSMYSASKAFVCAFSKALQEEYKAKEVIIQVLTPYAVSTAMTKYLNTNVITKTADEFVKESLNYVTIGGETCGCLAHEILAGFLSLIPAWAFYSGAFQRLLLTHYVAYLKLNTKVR
Excerpt: as §1, §2, §3, §4, §5

[3] = biological target: T3, 17β-hydroxysteroid dehydrogenase type 1 (17β-HSD type 1) (Homo sapiens, UniProt P14061); test: Inhibition of 17β-HSD type 1 in MCF-7 cells stably expressing the isoenzyme (tritium labeled estrone conversion, HPLC); conditions: MCF-7 cells expressing 17β-HSD type 1, 2 nM tritium labeled estrone; for inhibition at 1 µM / inhibition at 10 µM: MCF7; for inhibition at 1 µM: read-out: % Inhibition HSD1 1 μM; for inhibition at 10 µM: read-out: % Inhibition HSD1 10 μM
T3 construct: expressed in transfected cells; host or cells: MCF-7
T3 sequence (P14061 1-328): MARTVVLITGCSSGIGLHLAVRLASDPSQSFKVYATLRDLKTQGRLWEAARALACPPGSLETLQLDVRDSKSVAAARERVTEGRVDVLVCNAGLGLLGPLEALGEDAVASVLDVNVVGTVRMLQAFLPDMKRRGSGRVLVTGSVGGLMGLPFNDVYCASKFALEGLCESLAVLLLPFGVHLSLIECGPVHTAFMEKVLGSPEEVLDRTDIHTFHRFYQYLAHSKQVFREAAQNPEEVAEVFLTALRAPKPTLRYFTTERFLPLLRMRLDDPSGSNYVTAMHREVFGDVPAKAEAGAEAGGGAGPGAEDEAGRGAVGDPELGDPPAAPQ
Excerpt: as §1, §2, §3, §4, §5

Row | inhibition at 1 µM ([1]; 1 μM test compound) [%] | inhibition at 10 µM ([1]; 10 μM test compound) [%] | inhibition at 1 µM ([2]; 1 μM test compound) [%] | inhibition at 10 µM ([2]; 10 μM test compound) [%] | inhibition at 1 µM ([3]; 1 μM test compound) [%] | inhibition at 10 µM ([3]; 10 μM test compound) [%] | % Inhibition HSD2 1 μM ([1]; 1 μM test compound) [%] | % Inhibition HSD2 10 μM ([1]; 10 μM test compound) [%] | % Inhibition HSD3 1 μM ([2]; 1 μM test compound) [%] | % Inhibition HSD3 10 μM ([2]; 10 μM test compound) [%] | % Inhibition HSD1 1 μM ([3]; 1 μM test compound) [%] | % Inhibition HSD1 10 μM ([3]; 10 μM test compound) [%] | Compound
1 | -1.5 | 25.3 | 15.8 | 100 | 12.5 | 64.2 | – | – | – | – | – | – | COCc1nc2sc3c(c2c(=O)n1Cc1ccccc1)CCC(C=O)=C3Cl [No. 34, 3-Benzyl-8-chloro-2-methoxymethyl-4-oxo-3,4,5,6-tetrahydro-benzo[4,5]thieno[2,3-d]pyrimidine-7-carbaldehyde]
2 | – | – | – | – | – | – | 37.4 | 57.6 | 12.4 | 45.6 | 26.3 | 24.6 | CCCCC(CC)c1nc2sc3c(O)cccc3c2c(=O)n1Cc1ccccc1 (stereo not drawn) [No. 663]
3 | 10.8 | 11.9 | -1.1 | 3.9 | 4.7 | 10.5 | – | – | – | – | – | – | O=C(OCCn1c(-c2cccs2)nc2sc3c(c2c1=O)CCCC3)c1cccs1 [No. 69, Thiophene-2-carboxylic acid 2-(4-oxo-2-thiohen-2-yl-5,6,7,8-tetrahydro-4H-benzo[4,5]thieno[2,3-d]pyrimidin-3-yl)-ethyl ester]
4 | 4.9 | 21.1 | 32.7 | 100 | 10.2 | 32 | – | – | – | – | – | – | CCSC1=C(CO)CCc2c1sc1nc(-c3ccc(OC)cc3)n(Cc3ccccc3)c(=O)c21 [No. 19]
5 | 17.2 | 21.9 | 13 | 37.5 | 19.5 | 65.1 | – | – | – | – | – | – | CCCc1nc2sc3c(c2c(=O)n1Cc1cc(Br)ccc1OC)CCC(Br)C3=O (stereo not drawn) [No. 96]
6 | 28.8 | 81.3 | -0.8 | 7.7 | 23.5 | 66.7 | – | – | – | – | – | – | CCCc1nc2sc3c(O)cccc3c2c(=O)n1Cc1cc(Br)ccc1O [No. 100, 3-(5-Bromo-2-hydroxybenzyl)-8-hydroxy-2-propyl-3H-benzo[4,5]thieno[2,3-d]pyrimidin-4-one]
7 | 4.9 | 17.1 | 2.5 | 4.8 | 30.8 | 27.4 | – | – | – | – | – | – | COc1cc(-c2nc3sc4c(c3c(=O)n2Cc2ccccc2)CCC(C=O)=C4Sc2ccccc2)cc(OC)c1OC [No. 8, 3-Benzyl-4-oxo-8-phenylsulfanyl-2-(3,4,5-trimethoxyphenyl)-3,4,5,6-tetrahydro-benzo[4,5]thieno[2,3-d]pyrimidine-7-carbaldehyde]
8 | 8.5 | 21.1 | 16.9 | 28.4 | 9 | 15.5 | – | – | – | – | – | – | CC(=O)OCc1nc2sc3c(c2c(=O)n1Cc1ccccc1)CCCC3 [No. 29, Acetic acid 3-benzyl-4-oxo-3,4,5,6,7,8-hexahydro-benzo[4,5]thieno[2,3-d]pyrimidin-2-ylmethyl ester]
9 | 6.2 | 15.8 | 5.8 | 21.1 | 12.1 | 10.9 | – | – | – | – | – | – | CCCCn1c(-c2cc(OC)c(OC)c(OC)c2Br)nc2sc3c(O)cc(C)cc3c2c1=O [No. 694, 3-Butyl-2-(2-bromo-3,4,5-trimethoxyphenyl)-8-hydroxy-6-methyl-3H-benzo[4,5]thieno[2,3-d]pyrimidin-4-one]
10 | -1.7 | 16.6 | 9.9 | 61.1 | 26 | 37.5 | – | – | – | – | – | – | COc1ccc(-c2nc3sc4c(Oc5ccccc5)c(CO)ccc4c3c(=O)n2Cc2ccccc2)cc1 [No. 20, 3-Benzyl-7-hydroxymethyl-2-(p-methoxyphenyl)-8-phenoxy-3H-benzo[4,5]thieno[2,3-d]pyrimidin-4-one]
11 | 0.5 | 18.8 | 22.7 | 80.8 | 8.6 | 29.7 | – | – | – | – | – | – | COc1ccc(-c2nc3sc4c(c3c(=O)n2Cc2ccccc2)CCC(C=O)=C4Cl)cc1 [No. 14]
12 | 33.2 | 64.6 | 62.3 | 91.7 | 30.6 | 60.9 | – | – | – | – | – | – | CCCCn1c(-c2ccccc2OC)nc2sc3c(O)cccc3c2c1=O [No. 633, 3-Butyl-8-hydroxy-2-(2-methoxy-phenyl)-3H-benzo[4,5]thieno[2,3-d]pyrimidin-4-one]
13 | 3.5 | 6.5 | -2.2 | 4.1 | -7.7 | -18.3 | – | – | – | – | – | – | Cc1nc2sc3c(c2c(=O)n1-c1ccccc1)CCC(Br)(Br)C3=O [No. 45, 7,7-Dibromo-2-methyl-3-phenyl-6,7-dihydro-3H,5H-benzo[4,5]thieno[2,3-d]pyrimidine-4,8-dione]
14 | 20.2 | 19.1 | -1.2 | 16.3 | 25.4 | 39.7 | – | – | – | – | – | – | CC(=O)OCc1nc2sc3c(c2c(=O)n1Cc1ccccc1)CCCC3=O [No. 30, Acetic acid 3-benzyl-4,8-dioxo-3,4,5,6,7,8-hexahydro-benzo[4,5]thieno[2,3-d]pyrimidin-2-ylmethyl ester]
15 | 14.6 | 46.3 | 7 | 49.4 | 28.3 | 54.4 | – | – | – | – | – | – | COCCn1c(-c2cc(OC)c(OC)c(OC)c2Br)nc2sc3c(O)cccc3c2c1=O [No. 112, 2-(2-Bromo-3,4,5-trimethoxyphenyl)-8-hydroxy-3-(2-methoxyethyl)-3H-benzo[4,5]thieno[2,3-d]pyrimidin-4-one]
16 | 18 | 15 | -2.5 | -0.9 | 12 | 23.8 | – | – | – | – | – | – | O=c1c2c3c(sc2nc(-c2cc(O)c(O)c(O)c2)n1-c1ccccc1)CCCC3 [No. 43, 3-Phenyl-2-(3,4,5-trihydroxyphenyl)-5,6,7,8-tetrahydro-3H-benzo[4,5]thieno[2,3-d]pyrimidin-4-one]
